Results as given in patent publication US20150368617A1, “METHOD FOR FORMING ENDOTHELIAL CELLS” (Korea Advanced Institute of Science and Technology (KAIST), priority 2012, published 2015).

Columns and labels:
Flk1+ MPCs = test: Differentiation of MCs from Flk1+ MPCs, FACS of αSMA+ MCs; type: cell-based, mouse; conditions: Y27632 10 μM; ML7 5 μM
Procedure: FIGS. 11A-11D. ROCK suppression promotes the differentiation of ECs through PTEN-Akt signaling and inhibits the differentiation of MCs through MyPT-MLC signaling. (FIG. 11A) Representative FACS analysis of CD31+/CD144+ ECs incubated with 0.1% DMSO or LY294002 (20┌ M; LY) in the presence of PBS (Control) or Y27632 (10┌ M; Y). (FIG. 11B) % of CD31+/CD144+ EC population. Each group, n=3. *p<0.01 versus 0. Each group, n=3. *p<0.01 versus DMSO; ^#p<0.01 versus Y27632. (FIG. 11C) Representative FACS analysis of ┌ SMA+MCs or CD144+ ECs incubated with 0.1% DMSO or ML7 (5 ┌ M) in the presence of PBS (Control) or Y27632 (10┌ M). (FIG. 11D) % of ┌ SMA+MC population. Each group, n=3. *p<0.01 versus 0. Each group, n=3. *p<0.01 versus DMSO. n.s. represents statistically non-significant.
Analysis and sorting for CMs were performed at day 10.5. We harvested differentiated Flk1+ MPCs on OP9 cells with 0.25% trypsin-EDTA or dissociation buffer (Invitrogen). Cardiac troponin-T (cTnT)+ and ┌ smooth muscle actin (SMA)+ cells were analyzed after permeabilization using Cytofix/Cytoperm solution (BD Biosciences) for 15 min. After permeabilization, the cells were incubated for 30 min with anti-mouse cTnT (NeoMarkers) monoclonal antibody. […] Data were analyzed using FlowJo Version 7.5.4 software (TreeStar).

VYI-ECs = test: Matrigel tube forming assay; type: cell-based, mouse; conditions: addition of Y27632 10 μM to VEGF-A
Procedure: The purified VYI-ECs (described in detail in the Results section) were plated on Matrigel-filled plates at a density of 2-4×10^4 cells/cm^2, and were incubated in differentiation medium containing VEGF-A (50 ng/ml) with or without Y27632 (10┌ M). After 12 hrs, the tube structures were observed using Axiovert 25 microscope (Carl Zeiss) and phase-contrast images were taken using DeltaPix infinity X digital camera and DpxView LE software (DeltaPix, Denmark).

C[C@@H](N)[C@H]1CC[C@H](C(=O)Nc2ccncc2)CC1 [Y27632]
reduction of αSMA+MC population (Flk1+ MPCs): ~83%
increase of formation of vascular networks (VYI-ECs): 1.7 fold
